Source: patent US8530461B2 (Boehringer Ingelheim International GmbH, priority 2011, dated 2013)

target: T1, human ACC2 (Homo sapiens, UniProt O00763); assay: ACC2 assay, spectrophotometric 384 well assay (NADH-linked, coupled lactate dehydrogenase/pyruvate kinase); format: biochemical; settings: ACC2 assay; human ACC2 construct lacking 128 N-terminal amino acids; 25° C., 340 nm, 15 minutes; read-out: IC50
T1 construct: made in house; host or cells: insect cells (baculoviral expression system)
How it was run: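 N-terminally truncated (Δ128) human ACC2 expressed in baculovirus/insect cells; ADP formation coupled via pyruvate kinase/lactate dehydrogenase to NADH consumption, pH 7.5, 25 mM KHCO3, 1% DMSO. Reaction started with NADH, acetyl-CoA and ATP (500 uM f.c.); A340 slope over 15 min at 25° C, IC50 by four-parameter fit after subtracting no-acetyl-CoA controls.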

T1 sequence (O00763 129-2458 limits assumed): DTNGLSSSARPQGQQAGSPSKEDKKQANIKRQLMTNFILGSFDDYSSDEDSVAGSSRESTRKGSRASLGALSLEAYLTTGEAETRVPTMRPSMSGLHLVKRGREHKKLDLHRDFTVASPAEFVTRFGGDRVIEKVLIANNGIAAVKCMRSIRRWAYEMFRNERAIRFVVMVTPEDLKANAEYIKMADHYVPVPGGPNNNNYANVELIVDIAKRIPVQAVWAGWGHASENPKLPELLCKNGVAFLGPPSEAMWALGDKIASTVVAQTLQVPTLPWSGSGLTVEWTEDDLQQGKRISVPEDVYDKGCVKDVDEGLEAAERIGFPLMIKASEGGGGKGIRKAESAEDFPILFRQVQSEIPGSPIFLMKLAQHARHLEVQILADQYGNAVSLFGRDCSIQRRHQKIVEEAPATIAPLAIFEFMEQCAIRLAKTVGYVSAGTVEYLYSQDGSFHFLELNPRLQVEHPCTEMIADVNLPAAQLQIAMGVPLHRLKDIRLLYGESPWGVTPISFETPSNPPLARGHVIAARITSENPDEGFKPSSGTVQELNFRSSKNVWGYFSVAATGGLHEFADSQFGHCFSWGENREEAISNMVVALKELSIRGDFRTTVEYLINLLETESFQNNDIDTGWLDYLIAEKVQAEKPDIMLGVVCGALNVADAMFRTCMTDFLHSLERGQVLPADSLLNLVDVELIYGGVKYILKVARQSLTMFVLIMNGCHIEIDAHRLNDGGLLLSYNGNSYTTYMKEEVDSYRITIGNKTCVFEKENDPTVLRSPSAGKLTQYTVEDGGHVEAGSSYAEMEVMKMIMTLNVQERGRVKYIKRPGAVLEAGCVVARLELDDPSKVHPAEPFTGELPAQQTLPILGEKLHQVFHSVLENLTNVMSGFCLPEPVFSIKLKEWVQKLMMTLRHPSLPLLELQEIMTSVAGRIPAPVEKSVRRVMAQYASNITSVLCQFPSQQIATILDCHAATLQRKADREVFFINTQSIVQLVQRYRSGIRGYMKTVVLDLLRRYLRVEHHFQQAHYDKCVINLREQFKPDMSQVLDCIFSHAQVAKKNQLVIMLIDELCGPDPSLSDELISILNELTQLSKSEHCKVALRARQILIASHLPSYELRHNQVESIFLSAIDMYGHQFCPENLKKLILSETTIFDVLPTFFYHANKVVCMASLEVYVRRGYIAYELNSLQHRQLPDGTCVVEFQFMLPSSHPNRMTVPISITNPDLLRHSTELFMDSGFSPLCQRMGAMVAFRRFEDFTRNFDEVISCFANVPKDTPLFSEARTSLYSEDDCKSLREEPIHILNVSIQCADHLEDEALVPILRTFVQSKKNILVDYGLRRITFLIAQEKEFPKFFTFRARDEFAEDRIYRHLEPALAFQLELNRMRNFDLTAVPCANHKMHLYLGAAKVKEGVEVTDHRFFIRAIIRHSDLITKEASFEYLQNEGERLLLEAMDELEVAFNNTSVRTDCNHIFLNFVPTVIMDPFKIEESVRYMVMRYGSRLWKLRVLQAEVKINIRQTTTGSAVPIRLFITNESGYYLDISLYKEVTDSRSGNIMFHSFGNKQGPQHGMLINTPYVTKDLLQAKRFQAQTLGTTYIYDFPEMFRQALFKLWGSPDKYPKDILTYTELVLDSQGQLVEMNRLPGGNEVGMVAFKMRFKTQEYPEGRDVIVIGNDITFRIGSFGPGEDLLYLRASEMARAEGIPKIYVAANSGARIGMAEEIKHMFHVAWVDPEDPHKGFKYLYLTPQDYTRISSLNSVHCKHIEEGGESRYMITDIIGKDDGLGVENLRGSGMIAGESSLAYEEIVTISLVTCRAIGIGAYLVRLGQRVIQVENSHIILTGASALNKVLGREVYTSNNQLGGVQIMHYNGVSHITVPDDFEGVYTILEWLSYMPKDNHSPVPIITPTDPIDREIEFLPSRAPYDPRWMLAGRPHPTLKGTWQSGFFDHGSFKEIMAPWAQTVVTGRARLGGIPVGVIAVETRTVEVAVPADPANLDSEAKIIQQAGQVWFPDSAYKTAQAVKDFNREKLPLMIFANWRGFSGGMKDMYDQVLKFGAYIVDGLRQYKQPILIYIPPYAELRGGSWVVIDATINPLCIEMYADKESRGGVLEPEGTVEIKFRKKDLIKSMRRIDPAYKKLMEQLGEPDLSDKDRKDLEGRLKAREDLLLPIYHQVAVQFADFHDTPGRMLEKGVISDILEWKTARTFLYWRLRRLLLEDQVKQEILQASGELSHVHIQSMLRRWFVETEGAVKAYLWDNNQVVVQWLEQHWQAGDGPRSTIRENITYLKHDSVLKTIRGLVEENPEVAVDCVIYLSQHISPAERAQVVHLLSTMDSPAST

SMILES | IC50 [nM]
CC(=O)N[C@@H](C)c1ccc(N2CC(Oc3cc(OCc4ccccc4)ccn3)C2)cc1 [Example 8.7, (S)—N-(1-{4-[3-(4-Benzyloxy-pyridin-2-yloxy)-azetidin-1-yl]-phenyl}-ethyl)-acetamide] | 2240
CCOc1ccc(OC2CN(c3ccc([C@H](C)NC(=O)C4CCCC4)cc3)C2)cc1 [Example 1.8] | 550
CCOc1ccc(OC2CN(c3ccc([C@H](C)NC(=O)c4cc(C)oc4C)cc3)C2)cc1 [Example 2.1, (S)-2,5-Dimethyl-furan-3-carboxylic acid (1-{4-[3-(4-ethoxy-phenoxy)-azetidin-1-yl]-phenyl}-ethyl)-amide] | 1530
COc1ccc(OC2CN(c3ccc([C@H](C)NC(=O)C4CC4)cc3)C2)c(F)c1 [Example 10.21] | 3990
CCOc1ccc(OC2CN(c3ccc([C@H](C)NC(=O)N(C)CCOC)cc3)C2)cc1 [Example 4.8] | 1390
CCOc1ccc(OC2CN(c3ccc(C(C)NC(C)=O)cn3)C2)cc1 (centres unmarked) [Example 8.6, N-(1-{6-[3-(4-Ethoxy-phenoxy)-azetidin-1-yl]-pyridin-3-yl}-ethyl)-acetamide] | 170
CC(=O)N[C@@H](C)c1ccc(N2CC(Oc3ccc(OCC4CC4(F)F)cc3)C2)cc1 (some centres unmarked) [Example 9.5] | 40
CC(=O)NC(C)c1ccc(N2CC(Oc3ccnc(OCC(F)F)c3)C2)cc1 (centres unmarked) [Example 11.6] | 150
CCOc1ccc(OC2CN(c3ccc([C@H](C)NC(=O)c4ccc(C)nc4)cc3)C2)cc1 [Example 1.64] | 2190
CCOc1ccc(OC2CN(c3ccc([C@H](C)NC(=O)C4CC=CC4)cc3)C2)cc1 [Example 1.51] | 70
CCOc1ccc(OC2CN(c3ccc([C@H](C)NC(=O)CCOC)cc3)C2)cc1 [Example 1.67] | 1290
CCOc1ccc(OC2CN(c3ccc([C@H](C)NC(=O)c4cnc(C)s4)cc3)C2)cc1 [Example 1.41] | 1070
CC(=O)N[C@@H](C)c1ccc(N2CC(Oc3ccnc(O[C@@H]4CCOC4)c3)C2)cc1 [Example 11.2] | 270
CC(=O)NC(C)(C)c1ccc(N2CC(Oc3ccc(OCC4CC4)cc3)C2)cc1 [Example 15.1, N-(1-{4-[3-(4-Cyclopropylmethoxy-phenoxy)-azetidin-1-yl]-phenyl}-1-methyl-ethyl)-acetamide] | 910

Second part, the compound after the results:

IC50 [nM] | SMILES
60 | CC(=O)N[C@@H](C)c1ccc(N2CC(Oc3cccc(C(F)(F)F)n3)C2)cc1 [Example 14.2]
90 | CC(=O)N[C@@H](C)c1ccc(N2CC(Oc3cccc(N(C)C)n3)C2)cc1 [Example 12.6]
50 | CC(=O)N[C@@H](C)c1ccc(N2CC(Oc3cccc(C(C)(C)C)n3)C2)cc1 [Example 12.17]
1280 | CC(=O)N[C@@H](C)c1ccc(N2CC(Oc3ccc(C)c(F)c3F)C2)cc1 [Example 10.1, (S)—N-(1-{4-[3-(2,3-Difluoro-4-methyl-phenoxy)-azetidin-1-yl]-phenyl}-ethyl)-acetamide]
70 | CC(=O)N[C@@H](C)c1ccc(N2CC(Oc3ccc(OC(C)C)cc3)C2)cc1 [Example 9.1, (S)—N-(1-{4-[3-(4-Isopropoxy-phenoxy)-azetidin-1-yl]-phenyl}-ethyl)-acetamide]
310 | CC(=O)N[C@@H](C)c1ccc(N2CC(Oc3cccc(OC4CCC4)n3)C2)cc1 [Example 12.7]
